GI50 and TGI data for 10 compounds are collected here from PubChem BioAssay (NCI).

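The compound was tested at five concentrations on cells cultured in 96-well plates, with a 48-hour exposure period. The concentration for 50% growth inhibition is given as GI50. TGI marks complete inhibition of growth.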

What all share (test): NCI anticancer screen, dose series, 48 h
Assay [1] concerns A498 renal.
Assay [2] has as its system HCC-2998 colon.
Assay [3] relates to HOP-92 NSCLC.
The subject of assay [4] is LOX IMVI melanoma.
For assay [5], the system named is OVCAR-3 ovarian.
Assay [6] relates to SK-MEL-2 melanoma.
Assay [7] has as its system SNB-19 CNS.
Assay [8] relates to U251 CNS.
Assay [9] concerns UACC-257 melanoma.
The test system of assay [10] is EKVX NSCLC.

Turning to `COc1ccc(Nc2nc(NCc3ccccc3)c3ccccc3n2)cc1`, the GI50 was 2440 nM in [1]; 2900 nM in assay [2]; 2590 nM in assay [3]; 1990 nM in [4]; 2350 nM in assay [5]; 8.72 µM in assay [6]. For the same compound, the GI50 is 9.72 µM in assay [7], 2170 nM in assay [8] and 3820 nM in assay [9]. Also, the TGI in assay [1] turned out to be 13.9 µM; in assay [2] it was 7.6 µM; in assay [3], 12.6 µM; in assay [4], 3.92 µM; in assay [5], 5.73 µM; in assay [6], 21.7 µM. Moreover, the TGI amounted to 24.1 µM in [7], 3.97 µM in assay [8] and 13.8 µM in [9].
In the case of `COC(=O)C(=C\Sc1ccccc1)/C=C/C(=O)OC(C)(C)C`, the TGI in assay [10] was determined as 24.9 µM; in assay [2] it was 21.6 µM; in assay [3], 13.3 µM; in assay [4], 21.7 µM; in assay [5] it was 17 µM; in assay [6], 24.8 µM. In addition, the TGI worked out at 15.3 µM in [7], 27.7 µM in assay [8] and 26.5 µM in assay [9].
Turning to `COC(=O)C1=C2C3=C(C(=O)c4ccccc4C3=O)N(Cc3ccccc3)C2(OC(C)=O)C=CC1=O` (configuration not stated), the GI50 in assay [10] was 23.6 µM; in [2], 4670 nM; in assay [3], 850 nM; in assay [6], 42.5 µM; in [7] it was 31.3 µM; in assay [8], 9860 nM. In addition, in [9], the GI50 is 29600 nM. Further, the TGI in assay [10] was 79.9 µM; in assay [2] it was 47.4 µM; in assay [3], 19.7 µM; in assay [6], greater than 100 µM; in [7] it was greater than 100 µM; in assay [8] it was 39.4 µM. Moreover, the TGI in assay [9] was greater than 100 µM.
For `COc1cc(C2=Nc3c/c(=C\c4c(O)[nH]c5ccc(Cl)cc45)ccc3=N2)cc(OC)c1OC`, the GI50 in assay [1] is 29400 nM; in assay [2], 4440 nM; in assay [3], 444 nM; in assay [4], 1740 nM; in assay [5], 3070 nM; in assay [6] it was 9.01 µM. Also, the GI50 in assay [7] was 4.55 µM; in [8], 1790 nM; in assay [9] it was 1960 nM. Moreover, the TGI in assay [1] is greater than 100 µM; in assay [2] it was 21.8 µM; in [3] it was 6.35 µM; in [4], 4.3 µM; in [5], 11.1 µM; in [6], 30.2 µM. For the same compound, the TGI in assay [7] is 13.5 µM; in [8] it was 3.91 µM; in [9], 4.77 µM.
For `O=C(Nc1cccc(-n2cc(-c3ccncc3)c(-c3cc(O)cc(Cl)c3)n2)c1)Nc1ccc(Cl)c(Cl)c1`, the GI50 in [1] was 2090 nM; in assay [2], 2930 nM; in [5], 1960 nM; in [6] it was 1.8 µM; in assay [7], 3.18 µM; in assay [8] it was 1440 nM. For the same compound, in assay [9], the GI50 is 1950 nM. The TGI in assay [1] worked out at 9.06 µM; in [2] it was 8.99 µM; in assay [5], 5.05 µM; in assay [6], 4.04 µM; in assay [7], 19 µM; in [8], 3.09 µM. The TGI in [9] worked out at 4.3 µM.
Turning to `CC12Oc3ccc4ccccc4c3C1c1c(ccc3ccccc13)O2` (configuration not stated), the TGI in assay [10], in [3], in assay [4], in [5], in [6] and in assay [7] was greater than 100 µM each time. Besides, in assay [8], the TGI was greater than 100 µM.
Turning to `Cn1c(O)c(C=N)c(=O)n(C)c1=O`, the TGI in assay [10], in [2], in assay [3], in [4], in assay [5] and in [6] was greater than 100 µM in each case. Also, the TGI in [7], in assay [8] and in [9] was greater than 100 µM each time.
As for `C=CC[Se]C(=O)c1ccccc1OC(C)=O`, the GI50 was 885 nM in assay [1]; 1360 nM in [2]; 2280 nM in [3]; 1860 nM in assay [4]; 1950 nM in assay [5]; 2.05 µM in assay [6]. For the same compound, the GI50 in assay [7] is 0.493 µM; in assay [9], 2090 nM. Further, the TGI in assay [1] was found to be 5.62 µM; in assay [2], 2.88 µM; in assay [3], 6.12 µM; in [4] it was 3.78 µM; in assay [5] it was 3.51 µM; in assay [6] it was 4.33 µM. Also, the TGI in assay [7] came to 1.66 µM; in [9], 5 µM.
On to `O=C1OCC2=C1C(c1ccccc1)c1cc3c(cc1N2CCO)CCC3` (configuration not stated), for which the GI50 in [1] was 74.6 nM; in assay [10], 1.16 µM; in [2], 115 nM; in [4] it was 176 nM; in assay [5], 46.7 nM; in [6], 0.0901 µM. Further, the GI50 in assay [7] is 0.119 µM; in assay [8], 116 nM; in assay [9], 86.2 nM. Also, the TGI was 0.657 µM in assay [1]; greater than 25 µM in assay [10]; 0.941 µM in [2]; greater than 25 µM in assay [4]; 0.0975 µM in assay [5]; greater than 8.97 µM in assay [6]. The TGI was greater than 12.9 µM in assay [7], greater than 25 µM in assay [8] and greater than 25 µM in assay [9].
Take `COC1OC(COCc2ccc(Cl)cc2)C(OCc2ccc(Cl)cc2)C1O` (configuration not stated): the TGI in assay [10] was 46.3 µM; in assay [2], 32.6 µM; in assay [3], 25.1 µM; in assay [4], 32.8 µM; in assay [5] it was 42.8 µM; in assay [6], 30.6 µM. The results for the TGI in [7], in assay [8] and in assay [9] were 32.4 µM, 29.1 µM and 30.7 µM, respectively.
